Results reported in article PMC10063562, “Metabolic profiling, antioxidant, and enzyme inhibition potential of Iris pseudacorus L. from Egypt and Japan: A comparative study” (Scientific Reports, 2023).
Like-named read-outs stand apart in the source and are kept apart here.

Tests used:
α-glucosidase = conditions: cited from earlier work
protein glycation = tested on: protein glycation; set-up: method as in PMID 23270944; conditions: at concentration of 3 µg/mL; ref [83]; cited from earlier work
pancreatic lipase [1] = target: T1, pancreatic lipase (Sus scrofa, UniProt P00591); test: pancreatic lipase enzyme inhibition assay (4MUFO substrate); type: biochemical, porcine; conditions: mean ± SD, n=3
T1 construct: purchased Sigma Aldrich, Japan
T1 sequence (P00591 1-450): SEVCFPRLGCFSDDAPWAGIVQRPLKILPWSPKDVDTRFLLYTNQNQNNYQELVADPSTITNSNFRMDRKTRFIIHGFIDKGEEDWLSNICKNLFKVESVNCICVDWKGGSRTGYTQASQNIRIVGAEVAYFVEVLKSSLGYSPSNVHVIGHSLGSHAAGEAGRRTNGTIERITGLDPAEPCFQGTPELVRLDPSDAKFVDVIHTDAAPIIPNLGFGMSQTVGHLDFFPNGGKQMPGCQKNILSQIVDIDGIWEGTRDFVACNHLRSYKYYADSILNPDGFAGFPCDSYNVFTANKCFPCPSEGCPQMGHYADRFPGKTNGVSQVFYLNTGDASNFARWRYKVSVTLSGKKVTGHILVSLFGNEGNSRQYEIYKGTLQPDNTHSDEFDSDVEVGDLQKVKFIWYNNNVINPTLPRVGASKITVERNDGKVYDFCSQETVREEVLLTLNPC
From the text: 2, 2-Diphenyl-1-picrylhydrazyl (DPPH), pancreatic lipase enzyme from porcine animal, tyrosinase enzyme from mushroom plant and α-glucosidase enzyme from Saccharomyces cerevisiae fungi were purchased from the Sigma Aldrich, Japan. Arbutin and aluminum chloride (III) were obtained from Nacalai Tesque, Japan. Cetilistat was purchased from Combi-Blocks, United States of America. Acarbose and Trolox were obtained from Wako Pure Chemical Industries, Japan. Methanol was purchased from Al-Nasr Pharmaceutical Company, Egypt.
The anti-hyperlipidemic potential of yellow flag extracts was conducted by Bitou et al. method with minor alterations. In an ELISA microplate reader, pancreatic lipase solution (50 μL at pH 7.4) in phosphate buffer (100 μg/mL, 0.2 M) was added together with 50 μL of I. pseudacorus extract at a concentration ranging from 1.56 to 100 μg/mL. After 10 min of incubation at 25 °C. […] The quantity of 4-methylumbelliferone liberated by the lipase enzyme was measured fluorometrically using a spectrophotometer at 355 nm excitation wavelength and 460 nm emission wavelength. […] The percentage of lipase inhibition was calculated using the following equation: [1- As/Ac ]*100], where As and Ac symbolize I. pseudacorus extract and […] absorbances. […]
DPPH and enzyme inhibitory assays were carried out in triplicates, and the values were expressed as mean ± standard deviation. […]

[2] = set-up: method as in PMID 26799817; conditions: compared to trolox; ref [80]; cited from earlier work
[3] = cited from earlier work; for antioxidant activity IC50: compared to propyl gallate, ref [78]; for free radical scavenging activity IC50: compared to trolox, ref [79]
rats = conditions: pre-administration in rats (5 and 10 mg/kg); ref [91]; cited from earlier work
[4] = tested on: Chinese hamster lung fibroblast (V79-4) cells; set-up: method as in PMID 16102749; conditions: V79-4 cells exposed to hydrogen peroxide; ref [77]; cited from earlier work
[5] = DPPH radical scavenging assay; conditions: mean ± SD, n=3
Description: The antioxidant activity of the yellow flag extracts was determined using DPPH scavenging assay in accordance with Shimamura et al. with minimal adjustments. The reaction mixture in 96 well culture plate contained. […] After 20 min of incubation of the reaction mixture at 25 °C. The degree of bleaching of the violet tint of DPPH depends on the ability of I. pseudacorus extracts for hydrogen/electron donation and was measured spectrophotometrically at 520 nm of wavelength. Noteworthy, trolox (an artificial anti-oxidant agent) was used as a positive control. The percentage of antioxidant capacity of the yellow flag extracts equals to [ Ac-As/Ac ] *100 Where Ac, As represents the control absorbance and the I. pseudacorus extract absorbance, respectively. The graph was plotted and the inhibitory concentration 50 (IC50) value was calculated. DPPH and enzyme inhibitory assays were carried out in triplicates, and the values were expressed as mean ± standard deviation. For the determination of the in vitro antioxidant, tyrosinase, lipase, and α-glucosidase inhibition potential, the (IC50) was estimated from the graph plots of the dose–response curves at each sample concentration by GraphPad Prism software (San Diego, CA, USA). The IC50 was defined as the concentration of the sample required to inhibit 50% of the tested enzyme activity.

pancreatic lipase [6] = conditions: cited from earlier work
[7] = compared with acarbose, ref [6]

Molecule: COc1ccccc1-c1coc2cc(O)c(OC)c(O)c2c1=O [5,7-Dihydroxy-2',6-dimethoxyisoflavone]
- α-glucosidase IC50 (α-glucosidase; compared to acarbose, ref [83]): 0.321 ± 0.008 µg/mL
- protein glycation % inhibition (protein glycation): 70.41%

Molecule: CCCCCCCCCCCCCCCCOc1nc2ccc(C)cc2c(=O)o1 [Cetilistat]
- IC50 (pancreatic lipase [1]): 18.6 µM

Molecule: O=c1c(-c2ccc(O)cc2)coc2cc(O)cc(O)c12 [Genistein (30), Genistein]
- DPPH IC50 [2]: 1.89 ± 0.16 µg/mL
- α-glucosidase IC50 (α-glucosidase; compared with acarbose, ref [85]): 40.09 ± 0.94 µg/mL

Molecule: COc1ccc(-c2coc3cc(O)c(OC)c(O)c3c2=O)cc1 [Irisolidone (34), Irisolidone]
- antioxidant activity IC50 [3]: 12.62 µg/mL

Molecule: O=c1cc(-c2ccc(O)cc2)oc2cc(O)c([C@@H]3O[C@H](CO)[C@@H](O)[C@H](O)[C@H]3O)c(O)c12 [Isovitexin (43), Isovitexin]
- α-glucosidase IC50 (α-glucosidase; [7]): 6.7 µg/mL

Molecule: O=c1c(O)c(-c2ccc(O)c(O)c2)oc2cc(O)cc(O)c12 [Quercetin (38), Quercetin]
- rat fat absorption (rats): remarkable decrease in rat fat absorption

Molecule: COc1c(O)cc2occ(-c3ccc(O)cc3)c(=O)c2c1O [Tectorigenin (31), Tectorigenin]
- intracellular free radical scavenging and lipid peroxidation [4]: scavenged intracellular free radicals and reduced lipid peroxidation

Molecule: Cc1c(C)c2c(c(C)c1O)CCC(C)(C(=O)O)O2 (stereo not drawn) [Trolox, reference compound]
- DPPH IC50 [5]: 14.59 µg/mL
- free radical scavenging activity IC50 [3]: 17.3 µg/mL

Molecule: O=c1cc(-c2ccc(O)cc2)oc2c([C@@H]3O[C@H](CO)[C@@H](O)[C@H](O)[C@H]3O)c(O)cc(O)c12 [Vitexin (42), Vitexin]
- free radical scavenging activity IC50 [3]: 31.4 µg/mL
- α-glucosidase IC50 (α-glucosidase; [7]): 4.1 µg/mL

Molecule: CCCOC(=O)c1cc(O)c(O)c(O)c1 [propyl gallate, reference compound]
- antioxidant activity IC50 [3]: 6.72 µg/mL

Molecule: C[C@@H]1O[C@@H](OC[C@H]2O[C@@H](Oc3c(-c4ccc(O)c(O)c4)oc4cc(O)cc(O)c4c3=O)[C@H](O)[C@@H](O)[C@@H]2O)[C@H](O)[C@H](O)[C@H]1O [rutin, reference compound]
- protein glycation % inhibition (protein glycation): 82.50%

Molecule: Kaempferol-O-deoxyhexosyl hexoside (Kaempferol-O-rutinoside) [Compound 21]
- pancreatic lipase IC50 (pancreatic lipase [6]; compared to orlistat, ref [90]): 1.7 ± 0.30 µg/mL

Molecule: Schaftoside [Schaftoside (18)]
- pancreatic lipase % inhibition (pancreatic lipase [6]; at a concentration of 250 μg/mL, ref [88]): 95.5%
- pancreatic lipase IC50 (pancreatic lipase [6]; compared with orlistat, ref [88]): 130 µg/mL
